Measured values reported in patent US20210380666A1, “SYNTHETIC HEME-CONTAINING MOLECULES AND THEIR USE” (priority 2017, published 2021).
Ends that are not written are not given here.

Tests used:
[1] = CO binding of dithionite-reduced heme molecule by absorbance spectra; conditions: anaerobic, reduced with stoichiometric dithionite, CO saturated phosphate buffered saline added
Text: A heme molecule bound to two peptide chains Ac-GCHGGR (SEQ ID NO: 2) in a “sandwich” (see FIG. 1), when prepared in anaerobic conditions, changes absorbance spectra (measured by Cary Spec device) with the introduction of stoichiometric amounts of dithionite.

[2] = test system: 100% CO bound hemoglobin (HbCO); experiment: CO scavenging from CO-bound hemoglobin, UV-visible spectra kinetics; format: biochemical; conditions: 100% HbCO mixed with reduced heme-peptide; spectral changes during reaction

| Substance | CO binding ability (change of absorbance spectra) [1] | kobs for CO scavenging, k1 [2] [s⁻¹] | kobs for CO scavenging, k2 [2] [s⁻¹] |
| --- | --- | --- | --- |
| Ac-GCHGGR: heme molecule bound to two peptide chains Ac-GCHGGR in a sandwich configuration (also: heme molecule bound to two peptide chains in a sandwich configuration) | indicating its CO binding ability |  |  |
| QHGCGGCHG (N-acetyl; heme bound via two thioether bonds) |  | 0.1828 | 0.00968 |
| RCHGGR: heme group bound to two non-contiguous peptides each of sequence RCHGGR (not fully specified (N-terminus); also: heme group bound to two non-contiguous peptide copies) |  | 0.02576 | 0.01241 |
| microperoxidase-11 [MP11, reference compound] |  | 0.0215 |  |
